Measured values as given in patent US9375000B2, “Pesticidal arylpyrrolidines” (Bayer Intellectual Property GmbH, priority 2011, dated 2016).

Experiments:
Format in all cases: in vivo
[1] = system: Two-Spotted Spider Mite (Tetranychus urticae); assay: Two-spotted spider mite (Tetranychus urticae) spray test on kidney bean; settings: after 7 days; for pest or weed control at 20 ppm: Tetranychus urticae, 168 h, read-out: acaricidal activity
Method: (§1) Unless not mentioned otherwise, the test solutions were prepared as follows:
(§2) Solvent: 3 parts by weight Dimethylformamide
(§3) Emulsifier: 1 part by weight Polyoxyethylene alkyl phenyl ether
(§4) In order to make an appropriate formulation of an active compound, 1 part by weight of the active compound is mixed with the above mentioned amount of solvent and emulsifier and the mixture is diluted with water to a prescribed concentration. Ammonium salt or ammonium salt and penetration enhancer in a dosage of 1000 ppm are added to the desired concentration if necessary.
50 to 100 adult mites of Tetranychus urticae were inoculated to leaves of kidney bean at two-leaf stage planted in a pot of 6 cm in diameter. After one day, test solution at the appropriate concentration was sprayed thereon in a sufficient amount using a spray gun. After the spraying, the plant pot was placed inside a greenhouse, and after 7 days, the acaricidal activity was calculated. An acaricidal activity of 100% means that all mites were killed, whereas an acaricidal activity of 0% means that no mite was killed.

[2] = system: Cucurbit Leaf Beetle (Aulacophora femoralis); assay: Cucurbit leaf beetle (Aulacophora femoralis) cucumber leaf dip test; settings: after 7 days
Method: as §1, §2, §3, §4
Leaves of cucumber were immersed in the test solution at the appropriate concentration, and the leaves were dried in air. The leaves were then put in a plastic cup containing sterilized black soil and five Aulacophora femoralis at second instar larvae were released in the cup. The cups were placed in a temperature-controlled chamber at 25° C. After 7 days, the number of dead larvae was counted, and thus the insecticidal activity was calculated. An insecticidal activity of 100% means that all larvae were killed, whereas an insecticidal activity of 0% means that no larva was killed.

[3] = system: Larvae of Spodoptera litura; assay: Larvae of Spodoptera litura, method using artificial feeds; settings: artificial feed, after 7 days; for pest or weed control at 20 ppm: Spodoptera litura, 168 h, read-out: insecticidal activity (pesticidal ratio)
Method: as §1, §2, §3, §4
[A Method Using Artificial Feeds (Trade Name: Insecta LFM, Manufactured by Nosan Corporation)]
Powdery artificial feeds (2.3 g) were added to a plastic cup (diameter: 7.5 cm, height: 4 cm) to achieve a certain thickness. Water-diluted liquid (5 ml) of the active compound prepared above having predetermined concentration was evenly poured thereto and allowed to stand until the feeds were solidified. Five of the 3rd-instar larvae of Spodoptera litura were released in respective cups, and covered. The cups were put in a temperature controlled room at 25° C. and humidity of 50 to 60%, and the number of dead larvae after 7 days was determined to calculate the pesticidal ratio. 100% pesticidal ratio means death of all the larvae, while 0% pesticidal ratio means no dead larvae.

[4] = active compound concentration 20 ppm
[5] = active compound concentration 4 ppm

## O=C(NCc1ccc(N2CCC(c3cc(Cl)cc(C(F)(F)F)c3)(C(F)(F)F)C2O)nc1C(F)(F)F)C1CC1 (mixture of isomers) [A3-269]
[1]; [4]
  acaricidal activity: 100%
[2]; [4]
  insecticidal activity: 100%
[3]; [4]
  insecticidal activity (pesticidal ratio): 100%

## CC(=O)NCc1ccc(N2CCC(c3cc(Cl)c(Cl)c(Cl)c3)(C(F)(F)F)C2O)cc1Br (mixture of isomers) [A1-161]
[1]; [4]
  acaricidal activity: 100%
[2]; [4]
  insecticidal activity: 100%
[3]; [4]
  insecticidal activity (pesticidal ratio): 100%

## CCC(=O)NCc1ccc(N2CCC(c3cc(C(F)(F)F)cc(C(F)(F)F)c3)(C(F)(F)F)C2O)nc1C(F)(F)F (stereo not drawn) [A3-24]
[1]; [4]
  acaricidal activity: 100%
[2]; [4]
  insecticidal activity: 100%
[3]; [4]
  insecticidal activity (pesticidal ratio): 100%

## O=C(NCc1cnc(N2CCC(c3cc(C(F)(F)F)cc(C(F)(F)F)c3)(C(F)(F)F)C2O)nc1C(F)(F)F)C1CC1 (stereo not drawn) [A4-27]
[1]; [4]
  acaricidal activity: 100%
[2]; [4]
  insecticidal activity: 100%
[3]; [4]
  insecticidal activity (pesticidal ratio): 100%

## CCC(=O)NCc1ccc(N2CCC(c3cc(Cl)c(F)c(Cl)c3F)(C(F)(F)F)C2O)nc1C(F)(F)F (mixture of isomers) [A3-211]
[1]; [5]
  acaricidal activity: 100%
[1]; [4]
  acaricidal activity: 100%
[2]; [5]
  insecticidal activity: 100%
[2]; [4]
  insecticidal activity: 100%
[3]; [5]
  insecticidal activity (pesticidal ratio): 100%
[3]; [4]
  insecticidal activity (pesticidal ratio): 100%

## CCNC(=O)NCc1ccc(N2CCC(c3cc(Cl)c(Cl)c(Cl)c3)(C(F)(F)F)C2O)nc1C(F)(F)F (stereo not drawn) [A3-297]
[1]; [5]
  acaricidal activity: 100%
[1]; [4]
  acaricidal activity: 100%
[3]; [5]
  insecticidal activity (pesticidal ratio): 100%
[3]; [4]
  insecticidal activity (pesticidal ratio): 100%

## CCC(=O)NCc1ccc(N2CCC(c3cc(F)cc(Cl)c3)(C(F)(F)F)C2O)cc1C(F)(F)F (stereo not drawn) [A1-239]
[1]; [4]
  acaricidal activity: 100%

## CCC(=O)NCc1ccc(N2CCC(c3cc(Cl)c(F)c(Cl)c3F)(C(F)(F)F)C2O)cc1C(F)(F)F (stereo not drawn) [A1-283, N-{4-[3-(3,5-dichloro-2,4-difluorophenyl)-2-hydroxy-3-(trifluoromethyl)pyrrolidin-1-yl]-2-(trifluoromethyl)benzyl}propanamide]
[1]; [4]
  pest or weed control at 20 ppm: 100%
[2]; Aulacophora, foliar, 168 h, active compound concentration 20 ppm, read-out: insecticidal activity
  pest or weed control at 20 ppm: 100%
[3]; [4]
  pest or weed control at 20 ppm: 100%

## O=C(NCc1ccc(N2CCC(c3cc(F)c(F)c(F)c3)(C(F)(F)F)C2O)cc1C(F)(F)F)C1CC1 (stereo not drawn) [A1-264]
[1]; [4]
  acaricidal activity: 100%
[2]; [5]
  insecticidal activity: 100%
[2]; [4]
  insecticidal activity: 100%
[3]; [5]
  insecticidal activity (pesticidal ratio): 80%

## O=C(NCc1ccc(N2CCC(c3cc(Cl)c(Cl)c(Cl)c3)(C(F)(F)F)C2O)cc1Br)C1CC1 (mixture of isomers) [A1-165]
[1]; [4]
  acaricidal activity: 100%
[2]; [4]
  insecticidal activity: 100%
[3]; [4]
  insecticidal activity (pesticidal ratio): 100%

## O=C(CC(F)(F)F)NCc1ccc(N2CCC(c3cc(Cl)c(Cl)c(Cl)c3)(C(F)(F)F)C2O)cc1C(F)(F)F (stereo not drawn) [A1-51]
[1]; [4]
  acaricidal activity: 100%
[2]; [4]
  insecticidal activity: 100%
[3]; [4]
  insecticidal activity (pesticidal ratio): 100%

## O=C(CC1CC1)NCc1ccc(N2CCC(c3cc(Cl)cc(Cl)c3)(C(F)(F)F)C2O)cc1C(F)(F)F (stereo not drawn) [A1-39]
[1]; [4]
  acaricidal activity: 100%
[2]; [4]
  insecticidal activity: 100%

## O=C(NCc1ccc(N2CCC(c3cc(C(F)(F)F)cc(C(F)(F)F)c3)(C(F)(F)F)C2O)nc1Br)C1CC1 (stereo not drawn) [A3-159]
[1]; [4]
  acaricidal activity: 100%
[2]; [4]
  insecticidal activity: 100%
[3]; [4]
  insecticidal activity (pesticidal ratio): 100%

## CCC(=O)NCc1ccc(N2CCC(c3cc(Cl)c(F)c(Cl)c3)(C(F)(F)F)C2O)cc1C(F)(F)F (stereo not drawn) [A1-272]
[1]; [4]
  acaricidal activity: 100%
[2]; [4]
  insecticidal activity: 100%
[3]; [4]
  insecticidal activity (pesticidal ratio): 100%

## Cc1nc(N2CCC(c3cc(Cl)c(Cl)c(Cl)c3)(C(F)(F)F)C2O)ccc1CNC(=O)CC(F)(F)F (stereo not drawn) [A3-84]
[1]; [4]
  acaricidal activity: 100%
[2]; [4]
  insecticidal activity: 100%
[3]; [4]
  insecticidal activity (pesticidal ratio): 100%

## O=C(CC(F)(F)F)NCc1cnc(N2CCC(c3cc(Cl)c(Cl)c(Cl)c3)(C(F)(F)F)C2O)nc1C(F)(F)F (stereo not drawn) [A4-18]
[1]; [4]
  acaricidal activity: 100%
[2]; [4]
  insecticidal activity: 100%
[3]; [4]
  insecticidal activity (pesticidal ratio): 100%

## CS(=O)(=O)CC(=O)NCc1cnc(N2CCC(c3cc(Cl)c(Cl)c(Cl)c3)(C(F)(F)F)C2O)nc1C(F)(F)F (stereo not drawn) [A4-22]
[1]; [4]
  acaricidal activity: 100%
[2]; [4]
  insecticidal activity: 100%
[3]; [4]
  insecticidal activity (pesticidal ratio): 100%

## O=C(NCc1ccc(N2CCC(c3cc(Cl)cc(Cl)c3)(C(F)(F)F)C2O)cc1Cl)C1CC1 (stereo not drawn) [A1-5]
[1]; [4]
  acaricidal activity: 100%
[2]; [4]
  insecticidal activity: 100%
[3]; [4]
  insecticidal activity (pesticidal ratio): 100%

## COCCC(=O)NCc1ccc(N2CCC(c3cc(Cl)cc(Cl)c3)(C(F)(F)F)C2O)cc1C(F)(F)F (stereo not drawn) [A1-41]
[1]; [4]
  acaricidal activity: 100%
[3]; [4]
  insecticidal activity (pesticidal ratio): 100%

## CCC(=O)NCc1ccc(N2CCC(c3cc(Cl)c(F)c(Cl)c3F)(C(F)(F)F)C2O)cc1Br (stereo not drawn) [A1-430]
[1]; [4]
  acaricidal activity: 100%
[2]; [5]
  insecticidal activity: 100%
[3]; [5]
  insecticidal activity (pesticidal ratio): 100%

## COCCC(=O)NCc1ccc(N2CCC(c3cc(Cl)cc(Cl)c3)(C(F)(F)F)C2O)cc1Cl (stereo not drawn) [A1-8]
[1]; [4]
  acaricidal activity: 100%
[2]; [4]
  insecticidal activity: 100%

## N#CCC(=O)NCc1ccc(N2CCC(c3cc(Cl)c(Cl)c(Cl)c3)(C(F)(F)F)C2O)nc1C(F)(F)F (stereo not drawn) [A3-421]
[1]; [4]
  acaricidal activity: 100%
[3]; [5]
  insecticidal activity (pesticidal ratio): 100%

## CCC(=O)NCc1ccc(N2CCC(c3cc(Cl)cc(Cl)c3)(C(F)(F)F)C2O)cc1Cl (stereo not drawn) [A1-2]
[1]; [4]
  acaricidal activity: 100%
[2]; [4]
  insecticidal activity: 100%

## CC(=O)NC(C)c1ccc(N2CCC(c3cc(Cl)c(Cl)c(Cl)c3)(C(F)(F)F)C2O)cc1 (mixture of isomers) [A2-12]
[1]; [4]
  acaricidal activity: 100%
[3]; [4]
  insecticidal activity (pesticidal ratio): 100%

## CC(C)(C)OC(=O)NCc1ccc(N2CCC(c3cc(Cl)c(Cl)c(Cl)c3)(C(F)(F)F)C2O)cc1Cl (mixture of isomers) [A1-68]
[1]; active compound concentration 100 ppm
  acaricidal activity: 100%

## CC(=O)NCc1ccc(N2CCC(c3cc(Cl)c(Cl)c(Cl)c3)(C(F)(F)F)C2O)cc1C(F)(F)F (stereo not drawn) [A1-45]
[1]; [4]
  acaricidal activity: 100%
[3]; [4]
  insecticidal activity (pesticidal ratio): 100%

## CC(C)CC(=O)NCc1ccc(N2CCC(c3cc(Cl)c(Cl)c(Cl)c3)(C(F)(F)F)C2O)nc1C(F)(F)F (stereo not drawn) [A3-288]
[1]; [5]
  acaricidal activity: 100%
[1]; [4]
  acaricidal activity: 100%
[3]; [5]
  insecticidal activity (pesticidal ratio): 100%
[3]; [4]
  insecticidal activity (pesticidal ratio): 100%

## CCC(=O)NCc1ccc(N2CCC(c3cc(Cl)cc(Cl)c3)(C(F)(F)F)C2O)cc1CC (mixture of isomers) [A1-85]
[1]; [4]
  acaricidal activity: 90%

## COCCC(=O)NCc1ccc(N2CCC(c3cc(C(F)(F)F)cc(C(F)(F)F)c3)(C(F)(F)F)C2O)cc1C (mixture of isomers) [A1-190]
[1]; [4]
  acaricidal activity: 100%
[2]; [4]
  insecticidal activity: 100%

## O=C(CC1CC1)NCc1ccc(N2CCC(c3cccc(C(F)(F)F)c3)(C(F)(F)F)C2O)nc1C(F)(F)F (racemic) [A3-226]
[1]; [5]
  acaricidal activity: 100%
[1]; [4]
  acaricidal activity: 100%
[2]; [5]
  insecticidal activity: 100%
[2]; [4]
  insecticidal activity: 100%

## N#CCC(=O)NCc1cnc(N2CCC(c3cc(Cl)cc(Cl)c3)(C(F)(F)F)C2O)nc1C(F)(F)F (stereo not drawn) [A4-435]
[1]; [4]
  acaricidal activity: 100%

## CCC(=O)NCc1ccc(N2CCC(c3cc(Cl)c(Cl)c(Cl)c3)(C(F)(F)F)C2O)nc1C (stereo not drawn) [A3-79, N-({6-[2-hydroxy-3-(3,4,5-trichlorophenyl)-3-(trifluoromethyl)-pyrrolidin-1-yl]-2-methylpyridin-3-yl}methyl)propanamide]
[1]; [4]
  pest or weed control at 20 ppm: 100%
[3]; [4]
  pest or weed control at 20 ppm: 100%

## CCCC(=O)NCc1ccc(N2CCC(c3cc(Cl)cc(Cl)c3)(C(F)(F)F)C2O)cc1C(F)(F)F (stereo not drawn) [A1-36]
[1]; [4]
  acaricidal activity: 100%
[3]; [4]
  insecticidal activity (pesticidal ratio): 100%

## CC(=O)NCc1ccc(N2CCC(c3cc(Cl)c(Cl)c(Cl)c3)(C(F)(F)F)C2O)cc1Cl (stereo not drawn) [A1-12]
[1]; [4]
  acaricidal activity: 100%
[3]; [4]
  insecticidal activity (pesticidal ratio): 100%

## N#CCC(=O)NCc1ccc(N2CCC(c3cc(Cl)c(Cl)c(Cl)c3)(C(F)(F)F)C2O)cc1Br (stereo not drawn) [A1-525]
[1]; [5]
  acaricidal activity: 100%
[3]; [5]
  insecticidal activity (pesticidal ratio): 100%

## CS(=O)(=O)CC(=O)NCc1ccc(N2CCC(c3cccc(C(F)(F)F)c3)(C(F)(F)F)C2O)cc1C(F)(F)F (racemic) [A1-303]
[1]; [4]
  acaricidal activity: 100%
[2]; [4]
  insecticidal activity: 100%

## CC(=O)NCc1ccc(N2CCC(c3cc(Cl)c(F)c(Cl)c3F)(C(F)(F)F)C2O)nc1Br (stereo not drawn) [A3-322]
[1]; [4]
  acaricidal activity: 98%
[3]; [5]
  insecticidal activity (pesticidal ratio): 100%
